# Data reported in ChEMBL document CHEMBL5352418, “Molecular networking assisted discovery and combinatorial biosynthesis of new antimicrobial pleuromutilins” (Eur J Med Chem, 2022).
# System: Mycobacterium tuberculosis variant bovis
# Test: Antibacterial activity against Mycobacterium bovis BCG ATCC 35743 constitutive expressing GFP assessed as bacterial growth inhibition at 20 uM by CLSI protocol based broth microdilution method
# Type: functional
# Details: read-out: GI
row,SMILES,inhibition of growth at 20 µM
1,C=C[C@]1(C)C[C@@H](OC(=O)CO)[C@@]2(C)C3=CC(=O)C[C@@]3(CC[C@H]2C)[C@@H](C)[C@@H]1O,62%
2,C=C[C@]1(C)C[C@@H](O)[C@@]2(C)C3C(=O)CC[C@@]3(CC[C@H]2C)[C@@H](C)[C@@H]1O (some centres undefined),48%
3,C=C[C@]1(C)C[C@@H](OC(=O)CO)[C@@]2(C)C3C(=O)CC[C@@]3(CC[C@H]2C)[C@@H](C)[C@@H]1O (some centres undefined),50%
4,C[C@@H]1CC[C@@]23CCC(=O)C2[C@]1(C)[C@H](OC(=O)CO)C[C@@](C)([C@H](O)CO)[C@@H](O)[C@@H]3C (some centres undefined),20%
5,C=C[C@]1(C)C[C@@H](O)[C@@]2(C)C3[C@H](O)CC[C@@]3(CC[C@H]2C)[C@@H](C)[C@@H]1O (some centres undefined),36%
6,C=C[C@]1(C)C[C@@H](OC(C)=O)[C@@]2(C)C3=CC(=O)C[C@@]3([C@H](O)C[C@H]2C)[C@@H](C)[C@@H]1O,34%
7,C=C[C@]1(C)C[C@@H](O)[C@@]2(C)C3CCC[C@@]3(CC[C@H]2C)[C@@H](C)C1 (some centres undefined),24%
8,C=C[C@]1(C)C[C@@H](OC(C)=O)[C@@]2(C)C3[C@H](O)CC[C@@]3(CC[C@H]2C)[C@@H](C)[C@@H]1O (some centres undefined),43%
9,"C=C[C@]1(C)C[C@@H](OC(=O)CO)[C@@]2(C)C3C(=O)[C@H](O)CC3(CC[C@H]2C)[C@@H](C)[C@@H]1O (single isomer, unassigned)",34%
